Measurements taken from patent US12383512B2, “Cannabidiol-type cannabinoid compound” (Jazz Pharmaceuticals Research UK LImited, priority 2019, dated 2025).

Assays:
[1] = test system: seizure threshold current for tonic hind limb extensor convulsions in mice; assay: Maximal electroshock seizure threshold (MEST) test in the mouse; details: MEST test, 2.5 mg/kg i.p., pre-treatment time 30 min
Experimental: The efficacy of 6-OH CBD was tested in a mouse model of generalised seizure, the maximal electroshock seizure threshold (MEST) test.
In the MEST test the ability of a drug to alter the seizure threshold current required to induce hind limb tonic extensor convulsions is measured according to an “up and down” method of shock titration (Kimball et al., 1957). An increase in seizure threshold is indicative of anti-convulsant effect.
The ability of a test compound to alter the stimulus intensity, expressed as current (mA), required to induce the presence of tonic hind limb extensor convulsions, is assessed in the MEST.
Naïve mice were acclimatised to the procedure room in their home cages for up to 7 days, with food and water available ad libitum.
All animals were weighed at the beginning of the study and randomly assigned to treatment groups based on a mean distribution of body weight across groups.
The first animal within a treatment group was given a shock at the expected or estimated CC50 current. For subsequent animals, the current was lowered or raised depending on the convulsions outcome from the preceding animal.
Data generated from each treatment group were used to calculate the CC50±SEM values for the treatment group.
Vehicle: (5% ethanol, 5% solutol, 90% Saline) was prepared as follows: 2 mL of ethanol, 2 mL of solutol were warmed to 60° C., in 36 mL of saline (1:1:18).
The test compound, alpha 6-OH CBD was prepared according to the method described in Example 1. 6-OH CBD was administered at 3, 10 and 30 mg/kg (i.p.) in a 1:1:18 ethanol:solutol:0.9% saline formulation.
6-OH CBD effects were also calculated as percentage change in CC50 from the vehicle control group.
Significant difference between drug-treated animals and controls were assessed according to Litchfield and Wilcoxon (1949).

[2] = test system: tonic hind limb extensor seizure following corneally delivered electroshock in mice; assay: Supramaximal electroshock seizure (MES) test in the mouse; assay type: in vivo; details: 250 mg/kg i.p., pre-treatment time 30 min
Experimental: The MES test is a very stringent model in which mice receive a predetermined high-level electrical stimulus of sufficient intensity to reliably produce tonic hindlimb extensor seizures in 100% of control animals. As such the MES test is a rigorous evaluation of anticonvulsant activity (Swinyard, 1985).
Animals were dosed i.p. according to treatment group. […]
In addition, a dose of 100 mg/kg CBD was given at 10 ml/kg i.p. at 120 minutes pre-treatment time to assess the effect of the drug over a longer time course.
The positive control valproate was used at 250 mg/kg (10 ml/kg i.p. 30 min pre-treatment time).
Induction of seizure is measured as an all-or-nothing effect scored as either present (+) or absent (0) for each animal.
Data was collected by an observer unaware of the treatment for each animal and was expressed as the number of +'s or 0's for each treatment group.
The percentage inhibition of relevant vehicle treated group (the protection relative to vehicle treated controls) was then generated.
Significant differences between individual treatment groups and vehicle-treated groups were assessed using 2-tailed Fisher's Exact Probability test (p<0.05 considered significant).

SMILES	% change from vehicle (CC50) [1]	% change from vehicle [2]
CN1C(=O)CN=C(c2ccccc2)c2cc(Cl)ccc21 [Diazepam, diazepam, reference compound]	103%	–
CCCC(CCC)C(=O)O [Valproate, valproate, reference compound]	–	100%
